# Results published in patent US6743618B2, “Thermostable proteolytic enzymes and uses thereof in peptide and protein synthesis” (University of Florida Research Foundation, Inc., priority 1996, dated 2004).
# Non-standard residues stand in square brackets, D forms with d. Residues, ends and D or L forms follow the SMILES beside them. *: point of attachment. pNA = O=[N+]([O-])c1ccc(N*)cc1; Cbz = O=C(OCc1ccccc1)*; Bz = O=C(c1ccccc1)*
# Assays:
# [1] = system: serine protease of the subject invention; assay: Digestion of insulin B-chain, products by TLC; assay type: biochemical, Pyrococcus furiosus; conditions: 80° C., phosphate buffer, pH 7.0, 1 hour
# Experimental: Treatment of the insulin B-chain with the serine protease of the subject invention (80° C., phosphate buffer, pH 7.0) for 1 hour yields 5 ninhydrin-positive components by TLC. No non-enzyme hydrolysis of substrate was detected after this time period. One of the new components is alanine which the carboxy terminus of the B-chain. None of the others is a free amino acid. These studies with insulin provide further evidence that the enzyme is an endopeptidase.
# [2] = pK values used to calculate theoretical yield; assay type: physicochemical; conditions: for pK2: amine nucleophile; for pK1: carboxyl reactant
# Experimental: Yield is defined as the ratio of product concentration to the initial concentration of the carboxyl reactant (in percent). Theoretical yield was calculated from equations 1, 2 and 3 together with pK1=3.81 (ZGL) and 4.47 (ZGE); pK2=7.93 (leu-NH2) and 7.51 (arg-NH2).
# P. furiosus protease [3] = target: T1, P. furiosus protease (Pyrococcus furiosus, UniProt Q8U3Y3); assay: Hydrolysis kinetics of synthetic peptide and ester substrates (progress curve / initial velocity analysis); assay type: biochemical; conditions: for Ki: read-out: Ki (product inhibition constant)
# T1 sequence (Q8U3Y3 entry or part of it): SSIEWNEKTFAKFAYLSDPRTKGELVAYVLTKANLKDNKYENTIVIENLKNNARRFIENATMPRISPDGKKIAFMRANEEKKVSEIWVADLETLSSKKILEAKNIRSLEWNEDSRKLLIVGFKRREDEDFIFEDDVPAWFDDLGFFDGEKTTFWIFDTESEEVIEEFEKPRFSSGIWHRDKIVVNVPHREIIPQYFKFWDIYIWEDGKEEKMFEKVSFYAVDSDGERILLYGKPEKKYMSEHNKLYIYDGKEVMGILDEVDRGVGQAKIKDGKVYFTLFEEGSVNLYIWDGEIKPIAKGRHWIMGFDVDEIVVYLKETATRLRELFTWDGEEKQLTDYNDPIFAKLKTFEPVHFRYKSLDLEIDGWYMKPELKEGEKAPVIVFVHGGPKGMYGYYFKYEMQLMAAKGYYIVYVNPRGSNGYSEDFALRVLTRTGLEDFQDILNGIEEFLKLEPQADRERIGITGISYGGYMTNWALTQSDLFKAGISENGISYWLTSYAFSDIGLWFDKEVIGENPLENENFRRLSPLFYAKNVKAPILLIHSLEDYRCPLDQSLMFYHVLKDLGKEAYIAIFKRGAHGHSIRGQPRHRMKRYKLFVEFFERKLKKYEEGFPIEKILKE
# From the text: (§1) The hydrolysis kinetics of various synthetic peptide and ester protease substrates were studied. Two different methods have been used to analyze the kinetic properties of the enzyme. The first utilized initial velocity data at several substrate concentrations with analysis by plotting s/v νs s (Hanes plot). This method was always used when it was possible that the protease could cleave at more than one site (e.g., PPANA). The second method utilizes all data of the progress curve of the reaction. Progess curves were analyzed in two ways:
# (§2) Instantaneous point by point derivatives were calculated from the absorbance νs time data by fitting 10 points spaced 1 second apart by least squares to a second degree polynomial. Derivatives were computed analytically and were used to construct plots of v νs s, which were then analyzed by non-linear regression to obtain Km, kcat and any product inhibition constant (Ki) if it exists. […] For all measurements at elevated temperature, the first-order rate constants for non-enzymic hydrolysis were determined for all substrates. The analytic method described here was used both for reactions at 25.0° C. and 80.0° C.
# (§3) For these analyses, the integrated Michaelis-Menten equation was used, but not in linearized form, for reasons relating to product inhibition. Plots of time (now the dependent variable) νs absorbance were constructed from the raw data and analyzed by non-linear regression. […] This method was used for analyses at 25.0° C. only.
# (§4) All kinetic studies utilized a Cary 3E double beam spectrophotometer and absorbance νs time data were collected by computer at 1 second intervals. In cases where a peptide substrate could potentially be cleaved at more than one site, thin-layer chromatography was used to establish the products formed (silica gel; butanol:acetone:NH4OH:water—37:37:19:7).
# (§5) All of the above are mean values from at least 4 separate experiments. Except for PPANA, values are means of v νs s and integrated rate equation analyses. PPANA values were obtained from initial velocity measurements, analyzed by the Hanes equation. Solvent: 0.025 M Na Phosphate, pH 7.0. […] N. D. means not determined.
# trypsin = assay: BAPNA hydrolysis by trypsin (comparison); assay type: biochemical; conditions: BAPNA as substrate, same conditions (25.0 °C)
# P. furiosus protease [4] = target: T1, P. furiosus protease; assay: Activation enthalpy and entropy from Arrhenius plots of initial velocities; assay type: biochemical
# Experimental: For all kinetic experiments at high temperatures, sodium phosphate (0.025 M) was used as a buffer.
# To explore the basis for the extremely large increases in enzyme activity with temperature, initial velocity (vo) measurements were made at 6 different substrate concentrations in order to determine kcat and Km at a series of temperatures in the range of 25.0 to 83.5° C. Temperature was controlled to within ±0.5° C. with a large water bath and jacketed cuvettes. Two substrates were used for these experiments—BAPNA and D-pro-phe-arg-pNA(PPANA).
# Within the temperature range accessible to mesophilic enzymes, such plots are linear. […] The data was fitted to a second degree polynomial and the slopes determined as a function of temperature to compute Arrhenius activation energies. These values were used to compute activation enthalpy (ΔH*) and entrophy (ΔS*) as a function of temperature (Eyring, H. (1963) Modern Chemical Kinetics, Rheinhold, N.Y.).
# [5] = system: Pyrococcus furiosus serine protease (carboxypeptidase/endopeptidase), native, about 81 kDa, N-terminus SEQ ID NO: 1; assay: Kinetic studies and substrate specificity (hydrolysis of synthetic peptide and ester substrates; progress curves, Hanes plot); assay type: biochemical; conditions: for hydrolysis by the protease / product inhibition, Ki compared with Km: in words; for hydrolysis by the protease: at up to 80° C. for arg-pNA (TLC), Table 3 lists HA and ZGP at 25.0° C.; for Km / kcat: 0.025 M Na phosphate, pH 7.0, mean of at least 4 experiments (PPANA: initial velocities, Hanes equation)
# From the text: as §1, §2
# b. Integrated Rate Equation Analyses: t νs Absorbance
# as §3
# Subroutines for the above analyses were written to analyze the kinetic data for: product competitive inhibition, non-competitive inhibition, 2-product inhibition, and simple Michaelis-Menten kinetics. An HP 9000 series work station was used for this purpose, using HP BASIC.
# as §4, §5
# P. furiosus protease [6] = target: T1, P. furiosus protease; assay: Active site inhibitor studies, BAPNA as substrate; assay type: biochemical
# From the text: (§6) To assign the class of protease to which the P. furiosus protease belongs, several reagents were used to identify catalytically important residues.
# b. […] This reagent reacts rapidly and specifically with the active site histidine residue of the active site triad: ser-his-asp (Shaw, E. “Site-Specific Reagents for Chymotrypsin and Trypsin.” […]. 11:677-686, 1967).
# P. furiosus protease [7] = target: T1, P. furiosus protease; assay: Product inhibition: initial rate measurements of BAPNA with varying product concentrations; assay type: biochemical
# [8] = system: Pyrococcus furiosus serine protease, native, about 81 kDa, N-terminus SEQ ID NO: 1; assay: Active site inhibitor studies (BAPNA as substrate); assay type: biochemical; conditions: 10^−3 M, incubation for 24 hr
# Experimental: as §6
# a. Incubation of the enzyme with 10^−3 M EDTA for 24 hr had no effect upon enzyme activity.
# b. One of the active-site inhibitors of mesophilic serine proteases is phe-pro-argCH2Cl. This reagent reacts rapidly and specifically with the active site histidine residue of the active site triad: ser-his-asp (Shaw, E. “Site-Specific Reagents for Chymotrypsin and Trypsin.” […]. 11:677-686, 1967).
# [9] = 25.0 °C, 0.025 M Na phosphate, pH 7.0, total progress curve analyses
# [10] = 25.0 °C, BAPNA substrate, sodium phosphate 0.025 M pH 7.0, iodoacetamide 100-fold molar excess
compound,measurement,setting,value
"insulin B-chain: insulin B-chain, used as a substrate; its carboxy terminus is alanine",ninhydrin-positive components by TLC,[1],5
CC(C)C[C@H](N)C(N)=O [leu-NH2],pK2,[2],7.93
"O=C(O)CC[C@H](NC(=O)CNC(=O)OCc1ccccc1)C(=O)O [ZGE, Z-gly-glu] (Cbz-Gly-Glu-OH)",pK1,[2],4.47
NC(=O)[C@@H](N)CCCN=C(N)N [arg-NH2],pK2,[2],7.51
"N=C(N)NCCC[C@H](NC(=O)c1ccccc1)C(=O)Nc1ccc([N+](=O)[O-])cc1 [BAPNA, N-benzoyl-L-arginine-p-nitroanilide]",Ki compared with Km,P. furiosus protease [3]; 25.0 °C,Ki<Km
same,Ki times less than Km,"P. furiosus protease [3]; 25.0 °C, Table 3",10
same,Ki,P. furiosus protease [3]; [9],70.8 µM
same,kcat at 80° C. relative to 25° C. (times greater),P. furiosus protease [3]; 80 °C vs 25 °C,65
same,Ki,"P. furiosus protease [3]; 80.0 °C, 0.025 M Na phosphate, pH 7.0, progress curve analysis",220 µM
same,kcat,trypsin,2.7 s⁻¹
same,ΔH* (activation enthalpy),P. furiosus protease [4]; 25.0 °C,17.2 kcal/mol
same,ΔS* (activation entropy),P. furiosus protease [4]; 25.0 °C,2.2 e.u
same,ΔH* (activation enthalpy),P. furiosus protease [4]; 80.0 °C,3.1 kcal/mol
same,ΔS* (activation entropy),P. furiosus protease [4]; 80.0 °C,−41.7 e.u
"CC(C)C[C@H](NC(=O)CNC(=O)/C=C/c1ccco1)C(N)=O [FAGLA, furyl-acryloyl-glycyl-leucine amide]",Ki compared with Km,P. furiosus protease [3]; 25.0 °C,Ki<Km
same,product inhibition,P. furiosus protease [3]; 25.0 °C,intense product inhibition
same,Km,"P. furiosus protease [3]; 25.0 °C, 0.025 M Na phosphate, pH 7.0, PPANA from initial velocities (Hanes)",6.08 µM
same,kcat,"P. furiosus protease [3]; 25.0 °C, 0.025 M Na phosphate, pH 7.0, means of at least 4 experiments, PPANA from initial velocities (Hanes)",0.67 s⁻¹
N=C(N)NCCC[C@H](N)C(=O)Nc1ccc([N+](=O)[O-])cc1 [arg-pNA],hydrolysis by the protease (TLC),P. furiosus protease [3]; even at 80° C.,does not hydrolyze
same,hydrolysis by the protease,[5],"does not hydrolyze arg-pNA at all, even at 80 °C"
"CC(C)CC(NC(=O)CNC(=O)OCc1ccccc1)C(=O)O (centres unmarked) [ZGL, Z-gly-leu]",pK1,[2],3.81
"O=C(CNC(=O)OCc1ccccc1)N[C@@H](Cc1ccccc1)C(=O)O [ZGP, carbobenzoxy-gly-phe] (Cbz-Gly-Phe-OH)",hydrolysis by the enzyme,P. furiosus protease [3]; 25.0 °C,Remain Unaltered
same,hydrolysis by the protease,[5],Remain Unaltered by the Enzyme
N=C(N)NCCC[C@H](NC(=O)[C@@H]1CCCN1C(=O)[C@H](N)Cc1ccccc1)C(=O)CCl [phe-pro-argCH2Cl],pseudo first order inactivation rate constant,"P. furiosus protease [6]; inhibitor 1.98×10^−6 M, BAPNA 3.8×10^−4 M, 25.0 °C",0.022 s⁻¹
"N=C(N)NCCC[C@H](NC(=O)CNC(=O)c1ccccc1)C(=O)O [HA, hippuryl-arginine] (Bz-Gly-Arg-OH)",hydrolysis by the enzyme,P. furiosus protease [3]; 25.0 °C,Remain Unaltered
same,hydrolysis by the protease,[5],Remain Unaltered by the Enzyme
"O=S(=O)(F)Cc1ccccc1 [PMSF, phenyl-methyl-sulfonyl fluoride]",inhibition of enzyme activity,"P. furiosus protease [6]; 8×10^3 molar excess over enzyme, BAPNA substrate, 25.0 °C",complete inhibition
"CC(NC(=O)C(Cc1ccccc1)NC(=O)OCc1ccccc1)C(=O)O (centres unmarked) [ZPA, carbobenzoxy-phe-ala]",Ki compared with Km,P. furiosus protease [3]; 25.0 °C,Ki<Km
same,Ki,P. furiosus protease [3]; [9],134 µM
NC(=O)CI [iodoacetamide],effect upon the activity of the enzyme,P. furiosus protease [6]; [10],no effect whatsoever
"C[C@H](NC(=O)/C=C/c1ccco1)C(=O)N[C@@H](Cc1ccccc1)C(N)=O [FAAPA, furyl-acryloyl-ala-phe-amide]",Km,[5]; 25.0° C.,38.6 µM
same,kcat,[5]; 25.0° C.,7.31 s⁻¹
same,"product inhibition, Ki compared with Km",[5],Ki<Km
"N=C(N)NCCC[C@H](NC(=O)[C@H](Cc1ccccc1)NC(=O)[C@H]1CCCN1)C(=O)Nc1ccc([N+](=O)[O-])cc1 [PPANA, D-pro-phe-arg-pNA] (H-[dP]-Phe-Arg-pNA)",Km,[5]; 25.0° C.,477 µM
same,kcat,[5]; 25.0° C.,.045 s⁻¹
same,Km,[5]; 80.0° C.,499 µM
same,kcat,[5]; 80.0° C.,5.44 s⁻¹
same,kcat ratio 80° C./25° C.,[5]; kcat at 80° C. vs 25° C.,120 times
same,ΔH* (activation enthalpy),P. furiosus protease [4]; 25.0 °C,26.1 kcal/mol
same,ΔS* (activation entropy),P. furiosus protease [4]; 25.0 °C,23.8 e.u
same,ΔH* (activation enthalpy),P. furiosus protease [4]; 80.0 °C,15.4 kcal/mol
same,ΔS* (activation entropy),P. furiosus protease [4]; 80.0 °C,−9.0 e.u
N=C(N)NCCC[C@H](NC(=O)c1ccccc1)C(=O)O [benzoyl-L-arginine],Ki,P. furiosus protease [3]; [9],70.8 µM
same,Ki,"P. furiosus protease [7]; initial rate measurements of BAPNA with varying product concentration, read-out: Ki (inhibition constant of added product)",65 µM
"CCOC(=O)[C@H](Cc1ccc(O)cc1)NC(=O)c1ccccc1 [BTEE, benzoyl-tyrosine ethyl ester]",Ki,P. furiosus protease [3]; [9],5600 µM
O=C(O)CN(CCN(CC(=O)O)CC(=O)O)CC(=O)O [EDTA],effect upon enzyme activity,[8],no effect
same,effect upon enzyme activity,P. furiosus protease [6],no effect
"O=C(/C=C/c1ccco1)N[C@@H](Cc1ccccc1)C(=O)N[C@@H](Cc1ccccc1)C(=O)O [FAPP, furyl-acryloyl-phe-phe]",Km,[5]; 25.0° C.,375 µM
same,kcat,[5]; 25.0° C.,4.58 s⁻¹
same,"product inhibition, Ki compared with Km",[5],product inhibition is not observed
O=P(O)(O)O [sodium phosphate],effect upon the activity of the enzyme,P. furiosus protease [6]; pH 7,no effect whatsoever
O=C(O)c1cc(SSc2ccc([N+](=O)[O-])c(C(=O)O)c2)ccc1[N+](=O)[O-] [bisdithiodintrobenzene],effect upon the activity of the enzyme,P. furiosus protease [6]; [10],no effect whatsoever
"O=C(O)CNC(=O)CNC(=O)[C@H](Cc1ccccc1)NC(=O)/C=C/c1ccco1 [FAPGG, furyl-acryloyl-phe-gly-gly]",Km,[5]; 25.0° C.,415 µM
same,kcat,[5]; 25.0° C.,10.64 s⁻¹
same,"product inhibition, Ki compared with Km",[5],No product inhibition is observed
Nc1ccc([N+](=O)[O-])cc1 [p-nitroaniline],inhibition by added product,"P. furiosus protease [7]; concentrations as high as 5×10^−4 M, initial rates of BAPNA",no detectable inhibition
